Here are results for 22 molecules from patent publication US12344610B2, “APOL1 inhibitors and methods of use” (Maze Therapeutics, Inc., priority 2022, dated 2025).

For assay [1], the system named is HEK293 clonal cell line overexpressing APOL1 G1. The assay can be described thus: APOL1 G1 HEK293 cell rescue assay (Example B3). Type of assay: cell-based. The following applies: Homo sapiens, HEK293, HEK293 clonal line overexpressing APOL1 G1; geometric mean of at least 2 runs; † = single run; ¥ = concentration at 50% rescue estimated (no sigmoidal curve). Put shortly: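 Rescue of cell death caused by APOL1 G1 overexpression was measured in a clonal HEK293 line. Compounds were tested in duplicate on one plate, and EC50s were geometric means across at least two runs on different days. Some values are estimated 50%-rescue concentrations where curve fitting failed.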

Assay [2] relates to Trypanosoma brucei Lister 427 VSG221 with APOL1 G1 recombinant protein. Nature of the assay: APOL1 G1 trypanosome cell rescue assay (Example B5). The format is cell-based. The settings on record: Trypanosoma brucei, 20 h, read-out: APOL1 G1 Trypanosome Rescue EC50, Trypanosoma brucei Lister 427 VSG221 with APOL1 G1 recombinant protein, 20 hours, CellTiter-Glo; geometric mean of at least 2 assay runs; † = single assay run. Summed up:
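Recombinant APOL1 protein, dispensed from a 2 μg/mL stock, and 250 T. brucei per well were co-incubated with test compound (0.4% DMSO) for 20 h. Viability: CellTiter-Glo luminescence.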
(In general: ATP-based viability assays read luminescence as a measure of living cells.)

One may read the EC50 as the midpoint of the concentration-response curve. Take `CC(=O)N1CCCc2cc(OCCN3CCC4(CC3)C(=O)N(C)c3ccccc34)ccc21` [Compound 36, 1′-{2-[(1-acetyl-1,2,3,4-tetrahydroquinolin-6-yl)oxy]ethyl}-1-methyl-1,2-dihydrospiro[indole-3,4′-piperidin]-2-one]: the EC50 is > 2150 nM in assay [1] and > 4000 nM in assay [2].
The corresponding values for `CS(=O)(=O)c1c(F)cc(OCCN2CCC3(CC2)C(=O)Nc2ccccc23)cc1F` [Compound 42, 1′-[2-(3,5-difluoro-4-methanesulfonylphenoxy)ethyl]-1,2-dihydrospiro[indole-3,4′-piperidin]-2-one] are 1080 nM and 1880 nM.
The corresponding values for `O=C1Nc2ccc(Cl)cc2C12CCN(CCOc1ccc(S(=O)(=O)C3CC3)cc1)CC2` [Compound 43, 5-chloro-1′-{2-[4-(cyclopropanesulfonyl)phenoxy]ethyl}-1,2-dihydrospiro[indole-3,4′-piperidin]-2-one] are 131 nM and 86.6 nM.
In the same order, the values of `O=C1Nc2ccccc2C12CCN(CCOc1ccc(S(=O)(=O)C(F)F)cc1)CC2` [Compound 44, 1′-[2-(4-difluoromethanesulfonylphenoxy)ethyl]-1,2-dihydrospiro[indole-3,4′-piperidin]-2-one] are 478 nM and 429 nM.
Take `NC(=O)c1ccc(OCCN2CCC3(CC2)C(=O)Nc2ccc(Cl)cc23)cc1` [Compound 45, 4-(2-{5-chloro-2-oxo-1,2-dihydrospiro[indole-3,4′-piperidin]-1′-yl}ethoxy)benzamide]: the 50% effective concentration (EC50) in assay [1] is 387 nM; in assay [2], 747 nM.
Consider `NC(=O)c1ccc(OCCN2CCC3(CC2)C(=O)Nc2ccc(Cl)cc23)cc1F` [Compound 46, 4-(2-{5-chloro-2-oxo-1,2-dihydrospiro[indole-3,4′-piperidin]-1′-yl}ethoxy)-2-fluorobenzamide], for which the results for the EC50 in assay [1] and in assay [2] were 253 nM and 215 nM, respectively.
The corresponding values for `Cc1cc(OCCN2CCC3(CC2)C(=O)Nc2ccc(Cl)cc23)ccc1C(N)=O` [Compound 49, 4-(2-{5-chloro-2-oxo-1,2-dihydrospiro[indole-3,4′-piperidin]-1′-yl}ethoxy)-2-methylbenzamide] are 260 nM and 304 nM.
The corresponding values for `CS(=O)(=O)c1ccc(OCCN2CCC3(CC2)C(=O)Nc2ccc(Cl)cc23)cc1C#N` [Compound 50, 5-(2-{5-chloro-2-oxo-1,2-dihydrospiro[indole-3,4′-piperidin]-1′-yl}ethoxy)-2-methanesulfonylbenzonitrile] are 91.1 nM and 44.9 nM.
Turning to `CS(=O)(=O)N1CCCc2cc(OCCN3CCC4(CC3)C(=O)Nc3ccc(Cl)cc34)ccc21` [Compound 53, 5-chloro-1′-{2-[(1-methanesulfonyl-1,2,3,4-tetrahydroquinolin-6-yl)oxy]ethyl}-1,2-dihydrospiro[indole-3,4′-piperidin]-2-one], the half-maximal effective concentration (EC50) in assay [1] was 219 nM; in assay [2], 157 nM.
The corresponding values for `CC(=O)N1CCCc2cc(OCCN3CCC4(CC3)C(=O)Nc3ccc(Cl)cc34)ccc21` [Compound 56, 1′-{2-[(1-acetyl-1,2,3,4-tetrahydroquinolin-6-yl)oxy]ethyl}-5-chloro-1,2-dihydrospiro[indole-3,4′-piperidin]-2-one] are 330 nM and 319 nM.
For the molecule `CC(=O)N1Cc2ccc(OCCN3CCC4(CC3)C(=O)Nc3ccc(Cl)cc34)cc2C1` [Compound 57, 1′-{2-[(2-acetyl-2,3-dihydro-1H-isoindol-5-yl)oxy]ethyl}-5-chloro-1,2-dihydrospiro[indole-3,4′-piperidin]-2-one], the half-maximal effective concentration (EC50) in assay [1] is 390 nM; in assay [2], 672 nM.
The corresponding values for `CNC(=O)N1CCCc2cc(OCCN3CCC4(CC3)C(=O)Nc3ccc(Cl)cc34)ccc21` [Compound 60, 6-(2-{5-chloro-2-oxo-1,2-dihydrospiro[indole-3,4′-piperidin]-1′-yl}ethoxy)-N-methyl-1,2,3,4-tetrahydroquinoline-1-carboxamide] are 183 nM and 228 nM.
Take `O=C1Nc2ccc(Cl)cc2C12CCN(CCOc1ccc3nccnc3c1)CC2` [Compound 62, 5-chloro-1′-[2-(quinoxalin-6-yloxy)ethyl]-1,2-dihydrospiro[indole-3,4′-piperidin]-2-one]: the 50% effective concentration (EC50) in assay [1] is 433 nM; in assay [2], 390 nM.
In the same order, the values of `CS(=O)(=O)c1ccc(OCCN2CCC3(CC2)C(=O)Nc2ccc(Cl)cc23)cc1F` [Compound 63, 5-chloro-1′-[2-(3-fluoro-4-methanesulfonylphenoxy)ethyl]-1,2-dihydrospiro[indole-3,4′-piperidin]-2-one] are 160 nM and 164 nM.
In the same order, the values of `CS(=O)(=O)c1ccc(OCCN2CCC3(CC2)C(=O)Nc2ccc(Cl)cc23)cn1` [Compound 64, 5-chloro-1′-{2-[(6-methanesulfonylpyridin-3-yl)oxy]ethyl}-1,2-dihydrospiro[indole-3,4′-piperidin]-2-one] are 516 nM and 712 nM.
The corresponding values for `CN1C(=O)Cc2cc(OCCN3CCC4(CC3)C(=O)Nc3ccc(Cl)cc34)ccc21` [Compound 65, 5-chloro-1′-{2-[(1-methyl-2-oxo-2,3-dihydro-1H-indol-5-yl)oxy]ethyl}-1,2-dihydrospiro[indole-3,4′-piperidin]-2-one] are 351 nM and 294 nM.
As to `Cc1ccc2c(c1)C1(CCN(CCOc3ccc(S(C)(=O)=O)cc3)CC1)C(=O)N2` [Compound 66, 1′-[2-(4-methanesulfonylphenoxy)ethyl]-5-methyl-1,2-dihydrospiro[indole-3,4′-piperidin]-2-one], the concentration for a half-maximal effect (EC50) in assay [1] is 323 nM; in assay [2], 322 nM.
Regarding `Cn1ncc2cc(OCCN3CCC4(CC3)C(=O)Nc3ccc(Cl)cc34)ccc21` [Compound 68, 5-chloro-1′-{2-[(1-methyl-1H-indazol-5-yl)oxy]ethyl}-1,2-dihydrospiro[indole-3,4′-piperidin]-2-one], the EC50 in assay [1] is 368 nM; in assay [2], 441 nM.
Take `CS(=O)(=O)c1ccc(OCCN2CCC3(CC2)C(=O)Nc2ccc(Cl)cc23)cc1` [Compound 69, 5-chloro-1′-[2-(4-methanesulfonylphenoxy)ethyl]-1,2-dihydrospiro[indole-3,4′-piperidin]-2-one]: the EC50 in assay [1] was 311 nM; in assay [2], 184 nM.
The corresponding values for `Cn1ncc2cc(OCCN3CCC4(CC3)C(=O)Nc3ccccc34)ccc21` [Compound 70, 1′-{2-[(1-methyl-1H-indazol-5-yl)oxy]ethyl}-1,2-dihydrospiro[indole-3,4′-piperidin]-2-one] are > 2530 nM and > 4000 nM.
As to `CS(=O)(=O)c1ccc(OCCN2CCC3(CC2)C(=O)Nc2ccc(C#N)cc23)cc1` [Compound 71, 1′-[2-(4-methanesulfonylphenoxy)ethyl]-2-oxo-1,2-dihydrospiro[indole-3,4′-piperidine]-5-carbonitrile], the 50% effective concentration (EC50) was 1340 nM in assay [1] and 1360 nM in assay [2].
The corresponding values for `CS(=O)(=O)c1ccc(OCCN2CCC3(CC2)C(=O)Nc2ccc(Br)cc23)cc1` [Compound 72, 5-bromo-1′-[2-(4-methanesulfonylphenoxy)ethyl]-1,2-dihydrospiro[indole-3,4′-piperidin]-2-one] are 161 nM and 177 nM.
